# Format: in vivo, Sprague-Dawley rats
# Conditions: rat, in vivo, iv
# Procedure: Adult male Sprague-Dawley (SD) rats (approx 300 g) were used for the experiment. Femoral artery cannulae was implanted and exteriorised following isoflurane anaesthesia. Jugular vein artery cannulae was implanted and exteriorized. […]. Blood samples (˜325 μL) were collected into sample tubes containing the anticoagulant sodium citrate from femoral artery catheter pre-dose and at 5, 20 minutes and 2, 5, 8, 12, 24, and 48 hours post-dose, and kept at reduced temperature (approx 4° C.) until centrifuged. Blood samples were centrifuged, plasma separated and 50 μL aliquot of the plasma transferred to a scintillation vial for counting. At the end of the experimental period animals were euthanased via a lethal overdose of pentobarbital. The level of radioactivity in the plasma was measured following mixing of samples with Packard Ultima Gold liquid scintillation counting cocktail. Counting was conducted on a Beckman liquid scintillation counter (LS6500) or Packard TriCarb liquid scintillation counter for 10 minutes per sample. Results (DPM, calculated from an in-built quench curve in the counter) were corrected for background prior to any calculations. The pharmacokinetic parameters were calculated using PK Solutions 2.0 software (Summit Research Services, Ohio, U.S.A.) and are summarised in Table 11 below.
structure (smiles),measurement,value
"CC(C)CCC[C@@H](C)[C@H]1CC[C@H]2[C@@H]3CCC4CC(OCc5cn([C@@H]6O[C@H](COS(=O)(=O)[O-])[C@@H](O[C@H]7O[C@H](COS(=O)(=O)[O-])[C@@H](O[C@H]8O[C@H](COS(=O)(=O)[O-])[C@@H](OS(=O)(=O)[O-])[C@H](OS(=O)(=O)[O-])[C@H]8OS(=O)(=O)[O-])[C@H](OS(=O)(=O)[O-])[C@H]7OS(=O)(=O)[O-])[C@H](OS(=O)(=O)[O-])[C@H]6OS(=O)(=O)[O-])nn5)CC[C@]4(C)[C@H]3CC[C@]12C.[Na+].[Na+].[Na+].[Na+].[Na+].[Na+].[Na+].[Na+].[Na+].[Na+] (stereo partly drawn) [Compound 70, 4-(Cholestan-3-yl-oxymethyl)[1,2,3]triazol-1-yl 2,3,4,6-tetra-O-sodium sulfonato-α-D-glucopyranosyl-(1→4)-2,3,6-tri-O-sodium sulfonato-α-D-glucopyranosyl-(1→4)-1-deoxy-2,3,6-tri-O-sodium sulfonato-β-D-glucopyranoside]",Half-life (iv),10.3 h

# From US20150065440A1 (Progen Pharmaceuticals Limited, priority 2007, published 2015)
